Measured values from US9657057B2, “Dipeptide and tripeptide epoxy ketone protease inhibitors” (Onyx Therapeutics, Inc., priority 2013, dated 2017).
Converted amounts (≈) assume the structure as drawn. “And” between values parts separate entries of the source, which are not always exact repeats. Identical values can stand only once.

How the values were obtained:
[1] = Solubility pH 7; assay type: physicochemical; conditions: pH 7, aqueous buffer
[2] = biological target: i20S (20S immunoproteasome) (Homo sapiens, UniProt P20618+P28062); assay: 20S proteasome assay, chymotrypsin-like activity (LLVY), i20S; assay type: biochemical; conditions: LLVY i20S Hu 1 h CONT: IC50 (nM), succinyl-Leu-Leu-Val-Tyr-AMC
Excerpt: (§1) Assay buffer consisted of TE buffer [20 mmol/L Tris (pH 8.0), 0.5 mmol/L EDTA] with (20S) or without (cell lysate) 0.03% SDS. Reactions were initiated by enzyme or lysate addition and monitored for AMC product formation at 27jC with a plate-based spectofluorometer (Tecan).

[3] = biological target: c20S (constitutive 20S proteasome) (Homo sapiens, UniProt P20618+P28074); assay: 20S proteasome assay, chymotrypsin-like activity (LLVY), c20S; assay type: biochemical; conditions: LLVY c20S Hu 1 h CONT: IC50 (nM), succinyl-Leu-Leu-Val-Tyr-AMC
Excerpt: as §1

[4] = biological target: T1, LMP7 (Homo sapiens, UniProt P20618+P28062); assay: ProCISE proteasome subunit assay, LMP7; assay type: biochemical; conditions: MOLT4 lysate Hu 1 h
T1 construct: endogenous in cells; host or cells: MOLT-4
Protocol: (§2) This assay was used to assess the inhibitory activity against each of LMP2, LMP7, MECL1, β1, β2, and β5. Briefly, test compounds were serially diluted in DMSO at 100× concentration, then diluted to 10× in aqueous hypotonic lysis buffer. Lysate from the human acute lymphoblastic leukemia cell line, MOLT-4, was treated for 1 hour at 25° C. with compound at a final 1× concentration. […] Following this, lysate was denatured in guanidine hydrochloride, and subunits bound to probe were isolated with streptavidin-conjugated sepharose beads. Individual subunits were probed with subunit-specific primary antibodies, followed by HRP-conjugated secondary antibodies. A chemiluminescent substrate was used to generate signal associated with HRP binding, which was detected on a plate reader. Luminescent signal was normalized to protein content, then, percent activity calculated relative to DMSO-treated controls to generate IC50 curves.

[5] = biological target: T2, β5 (Homo sapiens, UniProt P20618+P28074); assay: ProCISE proteasome subunit assay, β5; assay type: biochemical; conditions: MOLT4 lysate Hu 1 h
T2 construct: endogenous in cells; host or cells: MOLT-4
Protocol: as §2

| SMILES | solubility [1] | IC50 [2] | IC50 [3] | IC50 [4] | IC50 [5] |
| --- | --- | --- | --- | --- | --- |
| COc1ccc(C[C@H](NC(=O)[C@H](C)NC(=O)CO)C(=O)N[C@@H](Cc2ccccc2)C(=O)[C@@]2(C)CO2)cc1 [Compound C-2008] | 2330 µg/mL (≈ 4560 µM) | 558 nM | 1590 nM | – | – |
| COC(=O)N[C@H](C)C(=O)N[C@@H](Cc1ccc(OC)cc1)C(=O)N[C@@H](Cc1ccccc1)C(=O)[C@@]1(C)CO1 [Compound C-2010, Methyl ((R)-1-(((S)-3-(4-methoxyphenyl)-1-(((S)-1-((R)-2-methyloxiran-2-yl)-1-oxo-3-phenylpropan-2-yl)amino)-1-oxopropan-2-yl)amino)-1-oxopropan-2-yl)carbamate] | 300 µg/mL (≈ 587 µM) | 414 nM | 1050 nM | – | – |
| COc1ccc(C[C@H](NC(=O)[C@H](C)NC(=O)CCO)C(=O)N[C@@H](Cc2ccccc2)C(=O)[C@@]2(C)CO2)cc1 [Compound C-2012, (S)-2-((S)-2-(3-hydroxypropanamido)propanamido)-3-(4-methoxyphenyl)-N—((S)-1-((R)-2-methyloxiran-2-yl)-1-oxo-3-phenylpropan-2-yl)propanamide] | 3830 µg/mL (≈ 7280 µM) | 86.9 nM | 262 nM | – | – |
| COCCC(=O)N[C@@H](C)C(=O)N[C@@H](Cc1ccc(OC)cc1)C(=O)N[C@@H](CC1CCCC1)C(=O)[C@@]1(C)CO1 [Compound C-2019, (S)—N—((S)-3-cyclopentyl-1-((R)-2-methyloxiran-2-yl)-1-oxopropan-2-yl)-3-(4-methoxyphenyl)-2-((S)-2-(3-methoxypropanamido)propanamido)propanamide] | 316 µg/mL (≈ 594 µM) | 332 nM | 579 nM | – | – |
| COc1ccc(C[C@H](NC(=O)[C@H](C)NC(=O)c2cnc(C)s2)C(=O)N[C@@H](CC2CCCC2)C(=O)[C@@]2(C)CO2)cc1 [Compound C-2025, N—((S)-1-(((S)-1-(((S)-3-cyclopentyl-1-((R)-2-methyloxiran-2-yl)-1-oxopropan-2-yl)amino)-3-(4-methoxyphenyl)-1-oxopropan-2-yl)amino)-1-oxopropan-2-yl)-2-methylthiazole-5-carboxamide] | 144 µg/mL (≈ 253 µM) | 569 nM | 289 nM | – | – |
| COc1ccc(C[C@H](NC(=O)[C@@H](C)NC(=O)c2nc3ccccc3[nH]2)C(=O)N[C@@H](CC2CCCC2)C(=O)[C@@]2(C)CO2)cc1 [Compound C-2029, N—((R)-1-(((S)-1-(((S)-3-cyclopentyl-1-((R)-2-methyloxiran-2-yl)-1-oxopropan-2-yl)amino)-3-(4-methoxyphenyl)-1-oxopropan-2-yl)amino)-1-oxopropan-2-yl)-1H-benzo[d]imidazole-2-carboxamide] | 1.7 µg/mL (≈ 2.88 µM) | 2580 nM | 3400 nM | – | – |
| COc1ccc(C[C@H](NC(=O)[C@@H](C)NC(=O)C2=Cc3ccccc3C2)C(=O)N[C@@H](CC2CCCC2)C(=O)[C@@]2(C)CO2)cc1 [Compound C-2036, N—((R)-1-(((S)-1-(((S)-3-cyclopentyl-1-((R)-2-methyloxiran-2-yl)-1-oxopropan-2-yl)amino)-3-(4-methoxyphenyl)-1-oxopropan-2-yl)amino)-1-oxopropan-2-yl)-1H-indene-2-carboxamide] | 2.1 µg/mL (≈ 3.57 µM) | – | 5140 nM and 2710 nM | 130 nM | 4860 nM |

The remaining lines, values ahead:

| solubility [1] | IC50 [2] | IC50 [3] | IC50 [4] | IC50 [5] | SMILES |
| --- | --- | --- | --- | --- | --- |
| 59.1 µg/mL (≈ 111 µM) | 560 nM | 797 nM | – | – | CCOCC(=O)N[C@@H](C)C(=O)N[C@@H](Cc1ccc(OC)cc1)C(=O)N[C@@H](CC1CCCC1)C(=O)[C@@]1(C)CO1 [Compound C-2020, (S)—N—((S)-3-cyclopentyl-1-((R)-2-methyloxiran-2-yl)-1-oxopropan-2-yl)-2-((S)-2-(2-ethoxyacetamido)propanamido)-3-(4-methoxyphenyl)propanamide] |
| 44.1 µg/mL (≈ 79.5 µM) | 2270 nM | 6030 nM | – | – | COc1ccc(C[C@H](NC(=O)[C@@H](C)NC(=O)c2oncc2C)C(=O)N[C@@H](CC2CCCC2)C(=O)[C@@]2(C)CO2)cc1 [Compound C-2024, N—((R)-1-(((S)-1-(((S)-3-cyclopentyl-1-((R)-2-methyloxiran-2-yl)-1-oxopropan-2-yl)amino)-3-(4-methoxyphenyl)-1-oxopropan-2-yl)amino)-1-oxopropan-2-yl)-4-methylisoxazole-5-carboxamide] |
| 1.7 µg/mL (≈ 2.89 µM) | 2520 nM | 3950 nM | – | – | COc1ccc(C[C@H](NC(=O)CNC(=O)C2=C(C)c3ccccc3C2)C(=O)N[C@@H](CC2CCCC2)C(=O)[C@@]2(C)CO2)cc1 [Compound C-2039, N-(2-(((S)-1-(((S)-3-cyclopentyl-1-((R)-2-methyloxiran-2-yl)-1-oxopropan-2-yl)amino)-3-(4-methoxyphenyl)-1-oxopropan-2-yl)amino)-2-oxoethyl)-3-methyl-1H-indene-2-carboxamide] |
| 65.9 µg/mL (≈ 122 µM) | 1400 nM | 9800 nM | – | – | COc1ccc(C[C@H](NC(=O)[C@@H](C)NC(=O)c2ccno2)C(=O)N[C@@H](CC2CCCC2)C(=O)[C@@]2(C)CO2)cc1 [Compound C-2041, N—((R)-1-(((S)-1-(((S)-3-cyclopentyl-1-((R)-2-methyloxiran-2-yl)-1-oxopropan-2-yl)amino)-3-(4-methoxyphenyl)-1-oxopropan-2-yl)amino)-1-oxopropan-2-yl)isoxazole-5-carboxamide] |
| 130 µg/mL (≈ 204 µM) | 1600 nM | 286 nM | – | – | COc1ccc(C[C@H](NC(=O)[C@H](CN2CCOCC2)NC(=O)c2cc(C)no2)C(=O)N[C@@H](CC2CCCC2)C(=O)[C@@]2(C)CO2)cc1 [Compound C-2044, N—((S)-1-(((S)-1-(((S)-3-cyclopentyl-1-((R)-2-methyloxiran-2-yl)-1-oxopropan-2-yl)amino)-3-(4-methoxyphenyl)-1-oxopropan-2-yl)amino)-3-morpholino-1-oxopropan-2-yl)-3-methylisoxazole-5-carboxamide] |
| 121 µg/mL (≈ 204 µM) | – | – | 157 nM | 6630 nM | COc1ccc(C[C@H](NC(=O)[C@@H](C)NC(=O)[C@H]2CCc3[nH]ncc3C2)C(=O)N[C@@H](CC2CCCC2)C(=O)[C@@]2(C)CO2)cc1 [Compound C-2065, (S)—N—((R)-1-(((S)-1-(((S)-3-cyclopentyl-1-((R)-2-methyloxiran-2-yl)-1-oxopropan-2-yl)amino)-3-(4-methoxyphenyl)-1-oxopropan-2-yl)amino)-1-oxopropan-2-yl)-4,5,6,7-tetrahydro-1H-indazole-5-carboxamide] |
| 1460 µg/mL (≈ 3050 µM) | – | – | 934 nM | 1930 nM | COc1ccc(C[C@H](NC(=O)[C@@H]2CC(=O)N2)C(=O)N[C@@H](Cc2ccccc2)C(=O)[C@@]2(C)CO2)cc1 [Compound C-3002, (S)—N—((S)-3-(4-methoxyphenyl)-1-(((S)-1-((R)-2-methyloxiran-2-yl)-1-oxo-3-phenylpropan-2-yl)amino)-1-oxopropan-2-yl)-4-oxoazetidine-2-carboxamide] |
| 1200 µg/mL (≈ 2500 µM) | – | – | 513 nM | 1220 nM | COc1ccc(C[C@H](NC(=O)[C@H]2CC(=O)N2)C(=O)N[C@@H](Cc2ccccc2)C(=O)[C@@]2(C)CO2)cc1 [Compound C-3003, (R)—N—((S)-3-(4-methoxyphenyl)-1-(((S)-1-((R)-2-methyloxiran-2-yl)-1-oxo-3-phenylpropan-2-yl)amino)-1-oxopropan-2-yl)-4-oxoazetidine-2-carboxamide] |
